Results reported in US20220202929A1, “DRUG-RESISTANT INFLUENZA VIRUS STRAINS” (President and Fellows of Harvard College, priority 2019, published 2022).

Tests used:
Type in all cases: cell-based, influenza A virus
[1] = tested on: M2 S31N/L46P mutant influenza virus strain
[2] = tested on: M2 S31N/G34E mutant influenza virus strain
[3] = tested on: M2 S31N mutant influenza virus strain
[4] = tested on: NA-H274Y mutant influenza virus strain

SMILES	IC50 [1] [µM]	IC50 [2] [µM]	IC50 [3] [µM]	IC50 [4] [µM]
NC12CC3CC(CC(C3)C1)C2 [amantadine]	65.9	> 100	24.7	–
CCOC(=O)C1=C[C@@H](OC(CC)CC)[C@H](NC(C)=O)[C@@H](N)C1 [oseltamivir]	–	–	–	2.67
